Calls of active or inactive are those of the source. The calls are words filed in the database; no cut-off is given here.
Tests used:
HeLa = experiment: Cytotoxicity against human Hela cells assessed as cell growth inhibition measured after 72 hrs by MTT assay; format: functional, cell-based
PC-3 = experiment: Cytotoxicity against human PC-3 cells assessed as cell growth inhibition measured after 72 hrs by MTT assay; format: functional, cell-based; details: PC-3, 72 h
MCF7 = experiment: Cytotoxicity activity against human MCF7 assessed as inhibition of cell growth measured after 72 hrs by MTT assay; format: functional, cell-based; details: MCF7, 72 h
A549 [1] = experiment: Cytotoxicity against human A549 cells assessed as cell growth inhibition measured after 72 hrs by MTT assay; format: functional, cell-based; details: A549, 72 h
HT-29 [2] = experiment: Cytotoxicity against human HT-29 cells assessed as cell growth inhibition measured after 72 hrs by MTT assay; format: functional, cell-based; details: HT-29, 72 h
MRC5 = experiment: Cytotoxicity against human MRC5 cells assessed as cell growth inhibition measured after 72 hrs by MTT assay; format: cell-based; details: MRC5, 72 h
MDA-MB-231 [3] = experiment: Cytotoxicity against human MDA-MB-231 cells assessed as cell growth inhibition measured after 72 hrs by MTT assay; format: functional, cell-based; details: MDA-MB-231, 72 h
MDA-MB-231 [4] = experiment: Induction of apoptosis in human MDA-MB-231 cells assessed as late apoptotic cells by measuring red colour signal measured after 72 hrs by fluorescent double-staining method; format: functional, cell-based
HT-29 [5] = experiment: Induction of apoptosis in human HT-29 cells assessed as late apoptotic cells by measuring red colour signal measured after 72 hrs by fluorescent double-staining method; format: functional, cell-based
A549 [6] = experiment: Induction of apoptosis in human A549 cells assessed as late apoptotic cells by measuring red colour signal measured after 72 hrs by fluorescent double-staining method; format: functional, cell-based

SMILES	IC50 (HeLa)	IC50 (PC-3)	IC50 (MCF7)	IC50 (A549 [1])	IC50 (HT-29 [2])	IC50 (MRC5)	IC50 (MDA-MB-231 [3])	Activity (MDA-MB-231 [4])	Activity (HT-29 [5])	Activity (A549 [6])
C[C@]12CCC(=O)C(O)=C1CC[C@@H]1[C@@H]2CC[C@]2(C)C(=O)CC[C@@H]12 [FORMESTANE]	3.36 µM	26.4 µM	> 100 µM	38.6 µM	> 100 µM	0.1 µM	–	–	–	–
CC(=O)O[C@H]1CC[C@]2(C)[C@H]3CC[C@]4(C)COC(=O)C[C@H]4[C@@H]3C[C@@H](OC(C)=O)[C@@]2(O)C1	8.66 µM	6.6 µM	12.7 µM	> 100 µM	> 100 µM	> 100 µM	31 µM	Active	–	–
CC(=O)O[C@H]1CC[C@]2(C)[C@H]3CC[C@]4(C)COC(=O)C[C@H]4[C@@H]3C[C@@H]3O[C@@]32C1	99.2 µM	> 100 µM	> 100 µM	> 100 µM	> 100 µM	> 100 µM	6.16 µM	Active	–	–
CC(=O)O[C@H]1CC[C@]2(C)[C@H]3CC[C@]4(C)COC(=O)C[C@H]4[C@@H]3C[C@@H](O)[C@@]2(Br)C1	13.6 µM	> 100 µM	86.6 µM	26.1 µM	> 100 µM	> 100 µM	26.5 µM	Active	–	–
COc1cccc2c1C(=O)c1c(O)c3c(c(O)c1C2=O)C[C@@](O)(C(=O)CO)C[C@@H]3O[C@H]1C[C@H](N)[C@H](O)[C@H](C)O1 [DOXORUBICIN]	–	84.2 µM	–	> 100 µM	–	0.24 µM	–	–	–	–
C[C@]12CC[C@H]3[C@@H](CC(=O)[C@@]4(O)C[C@@H](O)CC[C@]34C)[C@@H]1CC(=O)OC2	33.6 µM	> 100 µM	> 100 µM	> 100 µM	> 100 µM	> 100 µM	6.16 µM	Active	–	–
C[C@]12CC[C@H]3[C@@H](C[C@@H](O)[C@@]4(O)C[C@@H](O)CC[C@]34C)[C@@H]1CC(=O)OC2	93.6 µM	> 100 µM	8.62 µM	0.99 µM	9.34 µM	> 100 µM	13.8 µM	Active	Active	Active
CC(=O)O[C@H]1CC[C@]2(C)[C@H]3CC[C@]4(C)COC(=O)C[C@H]4[C@@H]3CC(=O)[C@@]2(O)C1	> 100 µM	> 100 µM	81.8 µM	> 100 µM	> 100 µM	> 100 µM	23.7 µM	Active	–	–
CC(=O)O[C@H]1CC[C@]2(C)[C@H]3CC[C@]4(C)COC(=O)C[C@H]4[C@@H]3C[C@@H](Cl)[C@@]2(Cl)C1	25.9 µM	> 100 µM	> 100 µM	15.5 µM	10.8 µM	> 100 µM	23.7 µM	Active	Active	Active

From ChEMBL document CHEMBL4680315, “Synthesis and anticancer potential of novel 5,6-oxygenated and/or halogenated steroidal d-homo lactones” (Bioorg Med Chem, 2021)
